HELM strings list units from the 5' end as sugar, base in round brackets, then linkage (d deoxyribose, r ribose, m 2'-O-methyl, p phosphodiester). Strings are as the collection lists them, not checked against the first reports. ss, as = sense and antisense strand; [lna] = locked nucleic acid (LNA); [una] = unlocked nucleic acid; [s4r] = 4'-thioribose; [fl2r] = 2'-fluoro
Details: siRNA
“RNA1{r(C)p.r(U)p.r(U)p.r(A)p.r(C)p.r(G)p.r(C)p.r(U)p.r(G)p.r(A)p.r(G)p.r(U)p.r(A)p.r(C)p.r(U)p.r(U)p.r(C)p.r(G)p.r(A)p.r(T)p.r(T)}|RNA2{r(U)p.r(C)p.r(G)p.r(A)p.r(A)p.r(G)p.r(U)p.r(A)p.r(C)p.r(U)p.r(C)p.r(A)p.r(G)p.r(C)p.r(G)p.[lna](U)p.r(A)p.r(A)p.r(G)p.r(T)p.r(T)}$$$RNA1{StrandType:ss}|RNA2{StrandType:as}$” gave a target mRNA knockdown of 81%.
Work on “RNA1{r(G)p.r(G)p.r(C)p.r(C)p.r(A)p.r(A)p.r(A)p.r(G)p.m(U)p.r(A)p.r(A)p.r(U)p.r(C)p.r(G)p.r(U)p.r(G)p.r(G)p.r(U)p.r(U)p.r(T)p.r(T)}|RNA2{r(A)p.r(A)p.r(C)p.r(C)p.r(A)p.r(C)p.r(G)p.r(A)p.r(U)p.m(U)p.r(A)p.r(C)p.r(U)p.r(U)p.r(U)p.r(G)p.r(G)p.r(C)p.r(C)p.r(T)p.r(T)}$$$RNA1{StrandType:ss}|RNA2{StrandType:as}$” yielded a target mRNA knockdown of 85%.
“RNA1{m(A)p.r(A)p.m(C)p.r(U)p.m(U)p.r(C)p.m(U)p.r(G)p.m(G)p.r(G)p.m(A)p.r(G)p.m(C)p.r(C)p.m(U)p.r(C)p.m(C)p.r(A)p.m(A)p.r(T)p.r(T)}|RNA2{r(U)p.r(U)p.r(G)p.r(G)p.m(A)p.r(G)p.r(G)p.r(C)p.r(U)p.r(C)p.r(C)p.r(C)p.m(A)p.r(G)p.m(A)p.m(A)p.r(G)p.r(U)p.r(U)p.r(T)p.r(T)}$$$RNA1{StrandType:ss}|RNA2{StrandType:as}$” showed a target mRNA knockdown of 42%.
For “RNA1{r(A)p.r(G)p.r(A)p.r(G)p.r(U)p.r(U)p.r(G)p.r(G)p.r(G)p.r(A)p.r(U)p.r(U)p.r(A)p.r(G)p.r(G)p.r(G)p.r(C)p.r(U)p.r(U)p.r(T)p.r(T)}|RNA2{r(A)p.r(A)p.r(G)p.r(C)p.r(C)p.r(C)p.m(U)p.r(A)p.r(A)p.r(U)p.r(C)p.r(C)p.r(C)p.r(A)p.r(A)p.r(C)p.r(U)p.r(C)p.r(U)p.r(T)p.r(T)}$$$RNA1{StrandType:ss}|RNA2{StrandType:as}$”, the target mRNA knockdown was 69%.
For “RNA1{m(G)p.r(C)p.m(A)p.m(G)p.m(A)p.m(G)p.m(A)p.m(A)p.r(U)p.r(C)p.r(U)p.m(A)p.r(C)p.r(C)p.r(U)p.r(U)p.r(U)p.r(C)p.r(C)p.r(T)p.r(T)}|RNA2{r(G)p.r(G)p.r(A)p.r(A)p.r(A)p.r(G)p.r(G)p.r(U)p.r(A)p.r(G)p.r(A)p.r(U)p.r(U)p.r(C)p.r(U)p.r(C)p.r(U)p.r(G)p.r(C)p.r(T)p.r(T)}$$$RNA1{StrandType:ss}|RNA2{StrandType:as}$”, the target mRNA knockdown was 65%.
In the case of “RNA1{[lna](G)p.r(C)p.r(A)p.r(G)p.r(C)p.r(A)p.r(C)p.r(G)p.r(A)p.r(C)p.r(U)p.r(U)p.r(C)p.r(U)p.r(U)p.r(C)p.r(A)p.r(A)p.r(G)p.r(U)p.r(U)}|RNA2{r(C)p.r(U)p.r(U)p.r(G)p.r(A)p.r(A)p.r(G)p.r(A)p.r(A)p.r(G)p.r(U)p.r(C)p.r(G)p.r(U)p.r(G)p.r(C)p.r(U)p.r(G)p.r(C)p.r(U)p.r(U)}$$$RNA1{StrandType:ss}|RNA2{StrandType:as}$”, the target mRNA knockdown is reported as 73.2%.
In the case of “RNA1{[s4r](C)p.[s4r](G)p.r(U)p.r(A)p.r(C)p.r(G)p.r(C)p.r(G)p.r(G)p.r(A)p.r(A)p.r(U)p.r(A)p.r(C)p.r(U)p.r(U)p.r(C)p.r(G)p.r(A)p.r(T)p.r(T)}|RNA2{r(U)p.r(C)p.r(G)p.r(A)p.r(A)p.r(G)p.r(U)p.r(A)p.r(U)p.r(U)p.r(C)p.r(C)p.r(G)p.r(C)p.r(G)p.r(U)p.r(A)p.[s4r](C)p.[s4r](G)p.r(T)p.r(T)}$$$RNA1{StrandType:ss}|RNA2{StrandType:as}$”, the target mRNA knockdown is reported as 91.3%.
Work on “RNA1{r(U)p.m(U)p.m(G)p.r(G)p.r(G)p.r(G)p.m(A)p.m(A)p.r(G)p.r(C)p.r(G)p.r(G)p.r(C)p.r(C)p.r(G)p.r(G)p.r(C)p.r(G)p.r(G)p.r(T)p.r(T)}|RNA2{r(C)p.r(C)p.r(G)p.r(C)p.r(C)p.r(G)p.r(G)p.r(C)p.r(C)p.r(G)p.r(C)p.r(U)p.r(U)p.r(C)p.r(C)p.r(C)p.m(C)p.r(A)p.r(A)p.r(T)p.r(T)}$$$RNA1{StrandType:ss}|RNA2{StrandType:as}$” yielded a target mRNA knockdown of 78%.
With “RNA1{m(A)p.r(G)p.m(C)p.r(G)p.m(A)p.r(U)p.m(C)p.r(C)p.m(C)p.r(G)p.m(A)p.r(A)p.m(C)p.r(A)p.m(A)p.r(G)p.m(U)p.r(A)p.m(U)p.r(T)p.r(T)}|RNA2{r(A)p.r(U)p.r(A)p.m(C)p.r(U)p.r(U)p.r(G)p.r(U)p.r(U)p.m(C)p.r(G)p.r(G)p.r(G)p.r(A)p.r(U)p.m(C)p.r(G)p.m(C)p.r(U)p.r(T)p.r(T)}$$$RNA1{StrandType:ss}|RNA2{StrandType:as}$” the target mRNA knockdown was 34%.
“RNA1{r(A)p.r(G)p.r(A)p.r(A)p.r(A)p.r(C)p.r(G)p.m(C)p.r(A)p.r(G)p.m(U)p.r(A)p.r(A)p.r(U)p.r(C)p.r(C)p.r(G)p.r(G)p.r(A)p.r(T)p.r(T)}|RNA2{r(U)p.r(C)p.r(C)p.r(G)p.r(G)p.r(A)p.r(U)p.m(U)p.r(A)p.r(C)p.m(U)p.r(G)p.r(C)p.r(G)p.r(U)p.r(U)p.r(U)p.r(C)p.r(U)p.r(T)p.r(T)}$$$RNA1{StrandType:ss}|RNA2{StrandType:as}$” gave a target mRNA knockdown of 81%.
Work on “RNA1{r(A)p.r(G)p.r(C)p.r(C)p.r(U)p.r(C)p.m(C)p.r(A)p.r(A)p.r(A)p.r(C)p.r(U)p.r(C)p.r(C)p.m(U)p.r(A)p.r(G)p.r(C)p.r(U)p.r(T)p.r(T)}|RNA2{r(A)p.r(G)p.r(C)p.m(U)p.r(A)p.r(G)p.r(G)p.r(A)p.r(G)p.r(U)p.r(U)p.m(U)p.r(G)p.r(G)p.r(A)p.r(G)p.r(G)p.r(C)p.r(U)p.r(T)p.r(T)}$$$RNA1{StrandType:ss}|RNA2{StrandType:as}$” yielded a target mRNA knockdown of 65%.
In the case of “RNA1{r(G)p.r(U)p.r(A)p.r(U)p.r(G)p.r(A)p.r(C)p.r(C)p.r(G)p.r(A)p.r(C)p.r(U)p.r(A)p.r(C)p.r(G)p.r(C)p.r(G)p.r(U)p.r(A)p.r(T)p.r(T)}|RNA2{r(U)p.r(U)p.r(C)p.r(A)p.r(G)p.r(U)p.r(G)p.r(U)p.r(G)p.[una](A)p.r(U)p.r(G)p.r(A)p.r(C)p.r(A)p.r(C)p.r(U)p.r(U)p.r(G)p.r(T)p.r(T)}$$$RNA1{StrandType:ss}|RNA2{StrandType:as}$”, the target mRNA knockdown is reported as 23%.
“RNA1{r(A)p.r(C)p.r(C)p.r(U)p.m(U)p.r(A)p.r(A)p.r(G)p.r(G)p.r(A)p.r(C)p.r(C)p.r(A)p.r(C)p.r(C)p.r(G)p.r(G)p.r(A)p.r(U)p.r(T)p.r(T)}|RNA2{r(A)p.r(U)p.r(C)p.r(C)p.r(G)p.r(G)p.r(U)p.r(G)p.r(G)p.r(U)p.r(C)p.r(C)p.r(U)p.m(U)p.r(A)p.r(A)p.r(G)p.r(G)p.r(U)p.r(T)p.r(T)}$$$RNA1{StrandType:ss}|RNA2{StrandType:as}$” gave a target mRNA knockdown of 74%.
“RNA1{r(G)p.r(C)p.r(U)p.r(G)p.r(A)p.r(A)p.r(C)p.[fl2r](U)p.r(A)p.r(G)p.r(U)p.r(C)p.r(G)p.r(A)p.r(A)p.r(A)p.r(G)p.r(A)p.r(A)p.r(T)p.r(T)}|RNA2{r(U)p.r(U)p.r(C)p.r(U)p.r(U)p.r(U)p.r(C)p.r(G)p.r(A)p.r(C)p.[fl2r](U)p.r(A)p.r(G)p.r(U)p.r(U)p.r(C)p.r(A)p.r(G)p.r(C)p.r(T)p.r(T)}$$$RNA1{StrandType:ss}|RNA2{StrandType:as}$” showed a target mRNA knockdown of 79%.

Reference: the OligoGym collection
Note: test system not given here.
